Where two headings read alike, the source gives them in different places.
Assays:
Type in all cases: cell-based
[1] = test system: HTT mRNA; assay: Splicing RT-qPCR assay (THP), Table 2A
[2] = test system: MYB mRNA; assay: Splicing RT-qPCR assay (THP), Table 2A
[3] = test system: SMN2 mRNA; assay: Gene panel canonical junction qPCR assay, decrease in CJ mRNA, Table 3; details: decrease in canonical junction (CJ) mRNA, gene panel qPCR, Table 3
In short: (§1)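 Eleven-point dose responses from 10 uM final, 24 h, DMSO ≤0.25%, in A673 or K562 cells. Relative quantification by 2^(−ΔΔCt) against housekeeper and vehicle was converted to percent response over fixed ΔCt windows and fitted to yield IC50.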

[4] = test system: MYB mRNA; assay: as above
In short: as §1

[5] = test system: HTT mRNA; assay: as above
In short: as §1

[6] = test system: SH-SY5Y (human neuroblastoma) cells; assay: Cell viability, Cell Titer Glo 2.0 assay; details: read-out: Viability SHSY5Y.3 GI50
In short: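 Following a 72 h incubation (37 °C, 5% CO2, 0.1% DMSO final), compound toxicity toward SH-SY5Y cells was quantified by CellTiter-Glo 2.0.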

[7] = Table 2A (THP), AJ mRNA increase, read-out: HTT AJ (increase in alternative junction mRNA, AC50)
[8] = Table 2A (THP), CJ mRNA decrease, read-out: HTT CJ (decrease in canonical junction mRNA, IC50)
[9] = Table 2A (THP), AJ mRNA increase, read-out: MYB AJ (increase in alternative junction mRNA, AC50)
[10] = Table 2A (THP), CJ mRNA decrease, read-out: MYB CJ (decrease in canonical junction mRNA, IC50)
[11] = decrease in canonical junction (CJ) mRNA, gene panel qPCR, Table 3
[12] = decrease in CJ mRNA levels, canonical junction qPCR, gene panel

Compound	IC50 [1, 8]	IC50 [2, 10]	IC50 [3]	IC50 [4, 11]	IC50 [5, 11]	GI50 [6]	IC50 ([1]; Table 2A, THP, HTT canonical junction (CJ) mRNA, read-out: HTT CJ (IC50, decrease in canonical junction mRNA))	IC50 ([2]; Table 2A, THP, MYB canonical junction (CJ) mRNA, read-out: MYB CJ (IC50, decrease in canonical junction mRNA))	IC50 [4, 12]	IC50 [5, 12]	AC50 [1, 7]	AC50 [2, 9]	AC50 ([1]; Table 2A, THP, HTT alternative junction (AJ) mRNA, read-out: HTT AJ (AC50, increase in alternative junction mRNA))	AC50 ([2]; Table 2A, THP, MYB alternative junction (AJ) mRNA, read-out: MYB AJ (AC50, increase in alternative junction mRNA))
CCNC1CCN(c2cc(F)c(C(=O)Nc3cc(F)c4cn(C)nc4c3)c3nn(C)cc23)CC1 [Compound 300, 4-[4-(ethylamino)-1-piperidyl]-6-fluoro-N-(4-fluoro-2-methylindazol-6-yl)-2-methyl-indazole-7-carboxamide]	> 10 µM	> 10 µM	1 to 10 µM	> 10 µM	> 10 µM	1 to 10 µM					> 10 µM	> 10 µM		
CCNC1CCN(c2cc(F)c(C(=O)Nc3cc(F)c4nc(C)n(C)c4c3)c3nn(C)cc23)CC1 [Compound 299, 4-[4-(ethylamino)-1-piperidyl]-6-fluoro-N-(7-fluoro-2,3-dimethyl-benzimidazol-5-yl)-2-methyl-indazole-7-carboxamide]	> 10 µM	> 10 µM	> 10 µM	> 10 µM	> 10 µM	> 10 µM					> 10 µM	> 10 µM		
CCNC1CCN(c2cc(F)c(C(=O)Nc3cn4c(C)c(C)nc4c(F)c3OC)c3nn(C)cc23)CC1 [Compound 305, 4-[4-(ethylamino)piperidin-1-yl]-6-fluoro-N-(8-fluoro-7-methoxy-2,3-dimethyl-imidazo[1,2-a]pyridin-6-yl)-2-methylindazole-7-carboxamide]	> 10 µM	> 10 µM	> 10 µM	> 10 µM	> 10 µM	> 10 µM					> 10 µM	> 10 µM		
CCNC1CCN(c2cc(F)c(C(=O)Nc3cn4cc(C)nc(C)c4n3)c3nn(C)cc23)CC1 [Compound 306, N-(6,8-dimethylimidazo[1,2-a]pyrazin-2-yl)-4-(4-(ethylamino)-piperidin-1-y1)-6-fluoro-2-methyl-2H-indazole-7-carboxamide 2,2,2-trifluoroacetate]	> 10 µM	< 0.1 µM	< 0.1 µM	< 0.1 µM	> 10 µM	1 to 10 µM					1 to 10 µM	< 0.1 µM		
CCNC1CCN(c2ccc(C(=O)Nc3cc(C#N)c4nc(C)cn4c3)c3nn(C)cc23)CC1 [Compound 307, N-(8-cyano-2-methyl-imidazo[1,2-a]pyridin-6-yl)-4-[4-(ethylamino)-1-piperidyl]-2-methyl-indazole-7-carboxamide]	1 to 10 µM	0.1 to 1 µM	< 0.1 µM	0.1 to 1 µM	1 to 10 µM	1 to 10 µM					1 to 10 µM	0.1 to 1 µM		
COc1nc2c(C(=O)Nc3ccc(=O)n(C)c3)ccc(N3C[C@H](C)N[C@@H](C)C3)c2s1 [Compound 730, 7-((3S,5S)-3,5-dimethylpiperazin-1-yl)-2-methoxy-N-(1-methyl-6-oxo-1,6-dihydropyridin-3-yl)benzo[d]thiazole-4-carboxamide 2,2,2-trifluoroacetate]						1 to 10 µM	> 10 µM	0.1 to 1 µM	0.1 to 1 µM	> 10 µM			> 10 µM	0.1 to 1 µM

The next lines start with results.

IC50 [1, 8]	IC50 [2, 10]	IC50 [3]	IC50 [4, 11]	IC50 [5, 11]	GI50 [6]	IC50 ([1]; Table 2A, THP, HTT canonical junction (CJ) mRNA, read-out: HTT CJ (IC50, decrease in canonical junction mRNA))	IC50 ([2]; Table 2A, THP, MYB canonical junction (CJ) mRNA, read-out: MYB CJ (IC50, decrease in canonical junction mRNA))	IC50 [4, 12]	IC50 [5, 12]	Compound	AC50 [1, 7]	AC50 [2, 9]	AC50 ([1]; Table 2A, THP, HTT alternative junction (AJ) mRNA, read-out: HTT AJ (AC50, increase in alternative junction mRNA))	AC50 ([2]; Table 2A, THP, MYB alternative junction (AJ) mRNA, read-out: MYB AJ (AC50, increase in alternative junction mRNA))
> 10 µM	> 10 µM	> 10 µM	> 10 µM	> 10 µM	> 10 µM					CCNC1CCN(c2cc(F)c(C(=O)Nc3cc4c(C)nc(C)cn4n3)c3nn(C)cc23)CC1 [Compound 302, N-(4,6-dimethylpyrazolo [1,5-a]pyrazin-2-yl)-4-[4-(ethylamino)-1-piperidyl]-6-fluoro-2-methyl-indazole-7-carboxamide]	> 10 µM	> 10 µM		
> 10 µM	> 10 µM	0.1 to 1 µM	> 10 µM	> 10 µM	1 to 10 µM					CCNC1CCN(c2cc(F)c(C(=O)Nc3cn4cc(C5CC5)nc4c(F)c3OC)c3nn(C)cc23)CC1 [Compound 304, N-(2-cyclopropyl-8-fluoro-7-methoxyimidazo [1,2-a]pyridin-6-yl)-4-[4-(ethylamino)-piperidin-1-yl]-6-fluoro-2-methylindazole-7-carboxamide]	> 10 µM	> 10 µM		
> 10 µM	> 10 µM	> 10 µM	> 10 µM	> 10 µM	1 to 10 µM					CCNC1CCN(c2ccc(C(=O)Nc3cc(F)c4cnccc4c3)c3nn(C)cc23)CC1 [Compound 303, 4-[4-(ethylamino)-1-piperidyl]-N-(8-fluoro-6-isoquinolyl)-2-methylindazole-7-carboxamide]	> 10 µM	> 10 µM		
> 10 µM	> 10 µM	> 10 µM	> 10 µM	> 10 µM	> 10 µM					CCNC1CCN(c2ccc(C(=O)Nc3cn4cc(C5CC5)nc(C)c4n3)c3nn(C)cc23)CC1 [Compound 309, N-(6-cyclopropyl-8-methylimidazo[1,2-a]-pyrazin-2-yl)-4-[4-(ethylamino)-1-piperidyl]-2-methyl-indazole-7-carboxamide]	> 10 µM	> 10 µM		
1 to 10 µM	0.1 to 1 µM	< 0.1 µM	0.1 to 1 µM	1 to 10 µM	1 to 10 µM					Cc1cn2cc(NC(=O)c3ccc(N4CC(CNC5CC5)C4)c4cn(C)nc34)cc(F)c2n1 [Compound 298, 4-[3-[(cyclopropylamino)-methyl]azetidin-1-yl]-N-(8-fluoro-2-methylimidazo[1,2-a]pyridin-6-yl)-2-methylindazole-7-carboxamide]	1 to 10 µM	0.1 to 1 µM		
> 10 µM	> 10 µM	0.1 to 1 µM	> 10 µM	> 10 µM	1 to 10 µM					CCNC1CCN(c2cc(F)c(C(=O)Nc3cn4c(Cl)c(C)nc4c(F)c3OC)c3nn(C)cc23)CC1 [Compound 308, N-(3-chloro-8-fluoro-7-methoxy-2-methyl-imidazo [1,2-a]pyridin-6-yl)-4-[4-(ethylamino)-1-piperidyl]-6-fluoro-2-methyl-indazole-7-carboxamide]	> 10 µM	> 10 µM		
1 to 10 µM	> 10 µM	1 to 10 µM	> 10 µM	1 to 10 µM	> 10 µM					CCNC1CCN(c2cc(F)c(C(=O)Nc3nc4c(C)nc(C)cn4n3)c3nn(C)cc23)CC1 [Compound 301, N-(6,8-dimethyl-[1,2,4]triazolo[1,5-a]pyrazin-2-yl)-4-(4-(ethylamino)piperidin-1-yl)-6-fluoro-2-methyl-2H-indazole-7-carboxamide 2,2,2-trifluoroacetate]	> 10 µM	> 10 µM		
> 10 µM	> 10 µM		> 10 µM	> 10 µM	1 to 10 µM					CCNC1CCN(c2ccc(C(=O)Nc3cc(OC)c4nc(C)sc4c3)c3nn(C)cc23)CC1 [Compound 385, 4-[4-(ethylamino)-1-piperidyl]-N-(4-methoxy-2-methyl-1,3-benzothiazol-6-yl)-2-methyl-indazole-7-carboxamide 2,2,2-trifluoroacetate]	1 to 10 µM	0.1 to 1 µM		
